Laboratory results from patent publication US12343326B2, “Psychoactive medicines and their use for treating psychiatric and neurological conditions and disorders” (Transcend Therapeutics, Inc., priority 2021, dated 2025).

Assays:
Assay in all cases: β-arrestin based GPCR screen (PathHunter / GPCRmax), antagonist mode
168 GPCRs [1] = target: T1, 168 GPCRs (Homo sapiens, UniProt P08173); settings: CHRM4, Antagonist
T1 sequence (P08173 1-479): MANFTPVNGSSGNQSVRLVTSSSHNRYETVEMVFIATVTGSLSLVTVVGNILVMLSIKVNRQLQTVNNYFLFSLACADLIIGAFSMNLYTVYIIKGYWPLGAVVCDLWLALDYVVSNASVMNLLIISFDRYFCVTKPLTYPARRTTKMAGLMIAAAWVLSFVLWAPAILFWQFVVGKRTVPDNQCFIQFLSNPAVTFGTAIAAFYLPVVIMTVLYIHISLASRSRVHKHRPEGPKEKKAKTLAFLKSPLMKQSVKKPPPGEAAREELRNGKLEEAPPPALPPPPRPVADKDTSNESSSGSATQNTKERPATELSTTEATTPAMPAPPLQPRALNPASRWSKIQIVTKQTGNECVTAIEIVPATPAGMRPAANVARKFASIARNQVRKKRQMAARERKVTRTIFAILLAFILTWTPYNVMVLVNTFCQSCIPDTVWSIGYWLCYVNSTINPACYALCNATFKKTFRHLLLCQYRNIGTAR

168 GPCRs [2] = target: 168 GPCRs (Homo sapiens, UniProt P11229); settings: CHRM1, Antagonist
168 GPCRs [3] = target: 168 GPCRs (Homo sapiens, UniProt P28222); settings: HTR1B
168 GPCRs [4] = target: 168 GPCRs (Homo sapiens, UniProt P30550); settings: GRPR
168 GPCRs [5] = target: T2, 168 GPCRs (Homo sapiens, UniProt P32248); settings: CCR7, Antagonist
T2 sequence (P32248 25-378): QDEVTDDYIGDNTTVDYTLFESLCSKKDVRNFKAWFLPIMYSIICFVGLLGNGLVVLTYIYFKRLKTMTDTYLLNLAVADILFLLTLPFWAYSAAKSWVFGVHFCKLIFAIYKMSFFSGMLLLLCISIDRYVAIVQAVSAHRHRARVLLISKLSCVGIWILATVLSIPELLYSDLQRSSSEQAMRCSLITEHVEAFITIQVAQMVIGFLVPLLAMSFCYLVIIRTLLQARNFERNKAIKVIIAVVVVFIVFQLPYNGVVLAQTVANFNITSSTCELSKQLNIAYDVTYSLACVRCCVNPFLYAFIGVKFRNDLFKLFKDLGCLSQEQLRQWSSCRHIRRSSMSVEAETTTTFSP

168 GPCRs [6] = target: 168 GPCRs (Homo sapiens, UniProt P34972)
168 GPCRs [7] = target: 168 GPCRs (Homo sapiens, UniProt P43088); settings: PTGFR
168 GPCRs [8] = target: 168 GPCRs (Homo sapiens, UniProt P43119); settings: PTGIR
168 GPCRs [9] = target: 168 GPCRs (Homo sapiens, UniProt P48146)
168 GPCRs [10] = target: 168 GPCRs (Homo sapiens, UniProt P49190)
168 GPCRs [11] = target: 168 GPCRs (Homo sapiens, UniProt P49683); settings: PRLHR
168 GPCRs [12] = target: 168 GPCRs (Homo sapiens, UniProt P51679); settings: CCR4, Antagonist
168 GPCRs [13] = target: 168 GPCRs (Homo sapiens, UniProt P51681); settings: CCR5, CCR5, Antagonist
168 GPCRs [14] = target: 168 GPCRs (Homo sapiens, UniProt Q969F8); settings: KISS1R
168 GPCRs [15] = target: 168 GPCRs (Homo sapiens, UniProt Q99705)
168 GPCRs [16] = target: 168 GPCRs (Homo sapiens, UniProt Q9HB89); settings: NMU1R
168 GPCRs [17] = target: 168 GPCRs (Homo sapiens, UniProt Q9NSD7)

Chain of 168 GPCRs (Homo sapiens, UniProt P49683) (P49683 whole entry): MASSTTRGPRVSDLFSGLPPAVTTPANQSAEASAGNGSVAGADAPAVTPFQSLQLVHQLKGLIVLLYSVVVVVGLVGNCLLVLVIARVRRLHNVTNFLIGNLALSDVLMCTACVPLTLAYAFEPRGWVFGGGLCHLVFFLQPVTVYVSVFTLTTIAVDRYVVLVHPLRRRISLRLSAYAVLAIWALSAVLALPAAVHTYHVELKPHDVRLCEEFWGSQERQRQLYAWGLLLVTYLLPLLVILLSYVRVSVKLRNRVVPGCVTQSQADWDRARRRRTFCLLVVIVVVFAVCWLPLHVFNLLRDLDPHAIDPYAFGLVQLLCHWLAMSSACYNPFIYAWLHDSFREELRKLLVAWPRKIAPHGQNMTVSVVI
Chain of 168 GPCRs (Homo sapiens, UniProt P49190) (P49190 25-550): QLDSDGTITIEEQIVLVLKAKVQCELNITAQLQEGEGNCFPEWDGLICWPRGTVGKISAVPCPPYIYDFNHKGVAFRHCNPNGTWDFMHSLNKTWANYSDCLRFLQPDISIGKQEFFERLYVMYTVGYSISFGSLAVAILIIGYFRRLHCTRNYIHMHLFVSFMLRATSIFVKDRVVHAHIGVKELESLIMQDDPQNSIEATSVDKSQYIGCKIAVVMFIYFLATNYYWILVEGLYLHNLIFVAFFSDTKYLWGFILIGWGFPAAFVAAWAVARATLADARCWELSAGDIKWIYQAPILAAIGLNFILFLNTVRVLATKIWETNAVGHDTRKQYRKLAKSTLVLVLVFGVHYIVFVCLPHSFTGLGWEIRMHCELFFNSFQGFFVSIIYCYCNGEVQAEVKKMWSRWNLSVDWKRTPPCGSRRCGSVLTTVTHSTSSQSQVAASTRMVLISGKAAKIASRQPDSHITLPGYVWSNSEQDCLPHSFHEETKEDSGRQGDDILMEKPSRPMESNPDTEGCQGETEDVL
Chain of 168 GPCRs (Homo sapiens, UniProt Q99705) (Q99705 whole entry): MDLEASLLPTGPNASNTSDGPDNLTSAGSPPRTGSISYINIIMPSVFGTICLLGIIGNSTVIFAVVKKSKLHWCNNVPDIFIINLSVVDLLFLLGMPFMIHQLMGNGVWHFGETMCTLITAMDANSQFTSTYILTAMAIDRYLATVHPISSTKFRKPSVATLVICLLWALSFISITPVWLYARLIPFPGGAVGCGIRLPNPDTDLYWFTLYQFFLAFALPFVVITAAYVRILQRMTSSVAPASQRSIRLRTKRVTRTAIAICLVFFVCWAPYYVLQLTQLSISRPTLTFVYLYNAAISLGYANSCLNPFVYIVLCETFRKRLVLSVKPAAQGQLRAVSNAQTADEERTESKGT
Chain of 168 GPCRs (Homo sapiens, UniProt P11229) (P11229 whole entry): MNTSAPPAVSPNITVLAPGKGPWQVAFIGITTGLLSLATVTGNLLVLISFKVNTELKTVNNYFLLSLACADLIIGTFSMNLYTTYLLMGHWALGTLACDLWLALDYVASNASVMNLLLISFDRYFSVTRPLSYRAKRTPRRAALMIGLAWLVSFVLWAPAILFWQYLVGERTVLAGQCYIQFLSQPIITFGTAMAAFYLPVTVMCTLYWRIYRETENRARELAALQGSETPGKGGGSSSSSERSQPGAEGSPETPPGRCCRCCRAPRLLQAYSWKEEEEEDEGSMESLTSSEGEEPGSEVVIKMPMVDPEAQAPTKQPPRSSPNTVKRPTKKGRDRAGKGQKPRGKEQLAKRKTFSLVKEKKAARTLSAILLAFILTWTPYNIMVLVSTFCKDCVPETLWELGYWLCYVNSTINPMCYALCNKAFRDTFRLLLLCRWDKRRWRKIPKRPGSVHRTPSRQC
Chain of 168 GPCRs (Homo sapiens, UniProt P43088) (P43088 whole entry): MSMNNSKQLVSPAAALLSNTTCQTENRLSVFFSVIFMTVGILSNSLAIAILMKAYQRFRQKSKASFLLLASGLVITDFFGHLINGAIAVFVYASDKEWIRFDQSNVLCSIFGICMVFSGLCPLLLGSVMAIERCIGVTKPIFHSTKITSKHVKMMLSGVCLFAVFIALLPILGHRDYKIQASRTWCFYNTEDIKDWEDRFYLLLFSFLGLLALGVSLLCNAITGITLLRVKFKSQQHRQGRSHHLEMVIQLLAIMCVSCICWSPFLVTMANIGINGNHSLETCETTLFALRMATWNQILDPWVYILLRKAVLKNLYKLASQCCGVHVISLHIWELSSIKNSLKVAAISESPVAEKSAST
Chain of 168 GPCRs (Homo sapiens, UniProt P28222) (P28222 whole entry): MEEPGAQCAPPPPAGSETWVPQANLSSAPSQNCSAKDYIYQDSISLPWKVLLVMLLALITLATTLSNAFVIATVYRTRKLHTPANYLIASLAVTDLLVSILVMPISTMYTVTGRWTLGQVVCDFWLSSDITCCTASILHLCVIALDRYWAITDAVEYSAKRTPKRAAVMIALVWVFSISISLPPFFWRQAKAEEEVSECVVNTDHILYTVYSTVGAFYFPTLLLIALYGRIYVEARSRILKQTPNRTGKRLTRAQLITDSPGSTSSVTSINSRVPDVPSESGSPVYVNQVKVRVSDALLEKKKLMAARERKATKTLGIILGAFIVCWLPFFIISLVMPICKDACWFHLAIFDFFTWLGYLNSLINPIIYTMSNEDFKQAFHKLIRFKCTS
Chain of 168 GPCRs (Homo sapiens, UniProt P34972) (P34972 whole entry): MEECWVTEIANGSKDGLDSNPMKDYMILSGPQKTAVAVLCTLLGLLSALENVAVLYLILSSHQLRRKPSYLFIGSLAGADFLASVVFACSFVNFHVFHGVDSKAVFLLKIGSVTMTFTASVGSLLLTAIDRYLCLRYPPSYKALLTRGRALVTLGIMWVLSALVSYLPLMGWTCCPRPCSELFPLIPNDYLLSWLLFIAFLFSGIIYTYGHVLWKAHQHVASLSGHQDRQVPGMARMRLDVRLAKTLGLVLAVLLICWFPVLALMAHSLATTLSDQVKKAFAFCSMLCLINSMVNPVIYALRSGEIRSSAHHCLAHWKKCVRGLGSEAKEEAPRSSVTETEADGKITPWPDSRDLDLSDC
Chain of 168 GPCRs (Homo sapiens, UniProt P30550) (P30550 whole entry): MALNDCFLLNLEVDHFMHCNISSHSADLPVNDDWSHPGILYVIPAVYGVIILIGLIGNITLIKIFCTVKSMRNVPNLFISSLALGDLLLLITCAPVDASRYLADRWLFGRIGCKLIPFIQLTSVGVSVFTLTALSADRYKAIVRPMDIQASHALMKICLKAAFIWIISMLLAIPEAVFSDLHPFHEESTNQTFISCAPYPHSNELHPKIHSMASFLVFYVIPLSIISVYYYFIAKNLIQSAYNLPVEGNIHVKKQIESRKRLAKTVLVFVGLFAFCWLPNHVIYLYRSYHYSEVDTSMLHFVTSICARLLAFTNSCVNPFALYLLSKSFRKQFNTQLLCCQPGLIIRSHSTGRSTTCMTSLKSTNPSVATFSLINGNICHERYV
Chain of 168 GPCRs (Homo sapiens, UniProt Q9HB89) (Q9HB89 whole entry): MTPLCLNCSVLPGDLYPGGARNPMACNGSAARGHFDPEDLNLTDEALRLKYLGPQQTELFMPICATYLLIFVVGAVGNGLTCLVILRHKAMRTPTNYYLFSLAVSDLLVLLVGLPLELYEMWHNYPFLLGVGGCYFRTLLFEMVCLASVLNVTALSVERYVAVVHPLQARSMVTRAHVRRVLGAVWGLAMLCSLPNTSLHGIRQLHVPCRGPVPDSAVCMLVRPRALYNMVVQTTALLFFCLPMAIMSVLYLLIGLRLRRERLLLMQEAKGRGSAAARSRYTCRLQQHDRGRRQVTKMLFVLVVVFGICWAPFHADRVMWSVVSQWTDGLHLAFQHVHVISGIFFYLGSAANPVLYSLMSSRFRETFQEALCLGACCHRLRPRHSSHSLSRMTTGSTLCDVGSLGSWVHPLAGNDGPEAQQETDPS
Chain of 168 GPCRs (Homo sapiens, UniProt P51681) (P51681 whole entry): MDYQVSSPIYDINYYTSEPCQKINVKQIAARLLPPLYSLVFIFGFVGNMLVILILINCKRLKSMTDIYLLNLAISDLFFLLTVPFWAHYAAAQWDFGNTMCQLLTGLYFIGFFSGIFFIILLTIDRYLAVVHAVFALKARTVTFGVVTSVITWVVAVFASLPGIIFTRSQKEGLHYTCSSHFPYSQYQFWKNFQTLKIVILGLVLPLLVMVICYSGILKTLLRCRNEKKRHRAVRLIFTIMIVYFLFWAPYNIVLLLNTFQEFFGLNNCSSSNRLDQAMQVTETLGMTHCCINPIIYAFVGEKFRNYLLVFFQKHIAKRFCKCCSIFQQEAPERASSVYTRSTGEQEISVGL
Chain of 168 GPCRs (Homo sapiens, UniProt P43119) (P43119 whole entry): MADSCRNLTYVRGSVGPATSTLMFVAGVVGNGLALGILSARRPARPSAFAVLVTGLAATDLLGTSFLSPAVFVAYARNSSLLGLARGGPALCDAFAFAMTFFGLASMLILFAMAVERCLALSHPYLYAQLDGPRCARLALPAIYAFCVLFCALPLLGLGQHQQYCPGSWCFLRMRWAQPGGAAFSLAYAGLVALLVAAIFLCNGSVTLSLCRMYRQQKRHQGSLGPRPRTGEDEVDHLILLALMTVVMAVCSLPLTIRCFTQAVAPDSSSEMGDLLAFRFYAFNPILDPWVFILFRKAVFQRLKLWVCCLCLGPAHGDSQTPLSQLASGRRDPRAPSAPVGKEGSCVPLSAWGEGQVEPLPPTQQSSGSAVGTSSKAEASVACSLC
Chain of 168 GPCRs (Homo sapiens, UniProt P51679) (P51679 whole entry): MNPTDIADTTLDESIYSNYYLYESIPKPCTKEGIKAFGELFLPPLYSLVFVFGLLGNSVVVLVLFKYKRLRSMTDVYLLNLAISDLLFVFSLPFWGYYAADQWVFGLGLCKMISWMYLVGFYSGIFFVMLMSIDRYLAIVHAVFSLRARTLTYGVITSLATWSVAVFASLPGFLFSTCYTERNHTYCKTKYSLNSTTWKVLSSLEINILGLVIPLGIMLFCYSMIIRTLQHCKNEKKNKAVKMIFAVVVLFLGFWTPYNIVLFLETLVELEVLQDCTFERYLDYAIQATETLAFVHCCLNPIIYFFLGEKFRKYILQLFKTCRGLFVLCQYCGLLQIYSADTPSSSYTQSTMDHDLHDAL

SMILES: CNC(C)C(=O)c1ccc2c(c1)OCO2 (stereo not shown) [methylone, 3,4-methylenedioxy-N-methylcathinone]
- activity at 1 µM (168 GPCRs [1]; 1 uM): 10.2%
- activity at 10 µM (168 GPCRs [1]; 10 uM): 6.7%
- activity at 1 µM (168 GPCRs [2]; 1 uM): 15.8%
- activity at 10 µM (168 GPCRs [2]; 10 uM): 2%
- activity at 10 µM (168 GPCRs [3]; Antagonist mode, 10 uM): -6.2%
- activity at 1 µM (168 GPCRs [3]; Antagonist, 1 uM): -9.5%
- activity at 10 µM (168 GPCRs [4]; Antagonist mode, 10 uM): -1.4%
- activity at 1 µM (168 GPCRs [4]; Antagonist, 1 uM): 0.7%
- activity at 1 µM (168 GPCRs [5]; 1 uM): -8.3%
- activity at 10 µM (168 GPCRs [5]; 10 uM): -3.4%
- activity at 10 µM (168 GPCRs [6]; CNR2, Antagonist mode, 10 uM): -3.2%
- activity at 1 µM (168 GPCRs [6]; CNR2, Antagonist, 1 uM): 3.6%
- activity at 10 µM (168 GPCRs [7]; Antagonist mode, 10 uM): 0%
- activity at 1 µM (168 GPCRs [7]; Antagonist, 1 uM): 0.9%
- activity at 10 µM (168 GPCRs [8]; Antagonist mode, 10 uM): -21.5%
- activity at 1 µM (168 GPCRs [8]; Antagonist, 1 uM): 12.4%
- activity at 10 µM (168 GPCRs [9]; NPBWR2, Antagonist mode, 10 uM): -14%
- activity at 1 µM (168 GPCRs [9]; NPBWR2, Antagonist, 1 uM): -14.1%
- activity at 10 µM (168 GPCRs [10]; PTHR2, Antagonist mode, 10 uM): -0.2%
- activity at 1 µM (168 GPCRs [10]; PTHR2, Antagonist, 1 uM): -1%
- activity at 10 µM (168 GPCRs [11]; Antagonist mode, 10 uM): 15.8%
- activity at 1 µM (168 GPCRs [11]; Antagonist, 1 uM): 17.8%
- activity at 1 µM (168 GPCRs [12]; 1 uM): 10%
- activity at 10 µM (168 GPCRs [12]; 10 uM): 9.5%
- activity at 1 µM (168 GPCRs [13]; 1 uM): 1.7%
- activity at 10 µM (168 GPCRs [13]; 10 uM): -0.5%
- activity at 10 µM (168 GPCRs [14]; Antagonist mode, 10 uM): 14.5%
- activity at 1 µM (168 GPCRs [14]; Antagonist, 1 uM): 28.7%
- activity at 10 µM (168 GPCRs [15]; MCHR1, Antagonist mode, 10 uM): -18.3%
- activity at 1 µM (168 GPCRs [15]; MCHR1, Antagonist, 1 uM): -12.2%
- activity at 10 µM (168 GPCRs [16]; Antagonist mode, 10 uM): -9.3%
- activity at 1 µM (168 GPCRs [16]; Antagonist, 1 uM): -6.7%
- activity at 10 µM (168 GPCRs [17]; RXFP3, Antagonist mode, 10 uM): 32.6%
- activity at 1 µM (168 GPCRs [17]; RXFP3, Antagonist, 1 uM): 23.1%
